Test results reported in publication PMC2978906 (Cancer prevention research (Philadelphia, Pa.), 2010).

Molecular target: T1, estrogen receptor α (ER-α) (Homo sapiens, UniProt P03372)
T1 sequence (P03372 311-547 limits assumed): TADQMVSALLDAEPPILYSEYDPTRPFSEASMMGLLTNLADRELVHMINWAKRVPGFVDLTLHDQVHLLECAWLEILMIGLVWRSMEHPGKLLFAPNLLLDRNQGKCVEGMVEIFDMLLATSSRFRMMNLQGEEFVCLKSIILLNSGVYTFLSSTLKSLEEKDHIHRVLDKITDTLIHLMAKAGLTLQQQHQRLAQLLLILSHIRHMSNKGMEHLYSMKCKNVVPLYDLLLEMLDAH
Test: LanthaScreen TR-FRET competitive binding assay

## CC(C)c1cc2c(c(O)c1O)[C@@]13CCCC(C)(C)[C@@H]1C[C@@H]2OC3=O [carnosol]
  IC50: 51 µM
